The record followed here is ChEMBL document CHEMBL1155458, “Synthesis, inhibitory activity of cholinesterases, and neuroprotective profile of novel 1,8-naphthyridine derivatives” (J Med Chem, 2010).

Series [1] concerns the target T1, Acetylcholinesterase (Bos taurus) (UniProt P23795).
T1 sequence (whole entry): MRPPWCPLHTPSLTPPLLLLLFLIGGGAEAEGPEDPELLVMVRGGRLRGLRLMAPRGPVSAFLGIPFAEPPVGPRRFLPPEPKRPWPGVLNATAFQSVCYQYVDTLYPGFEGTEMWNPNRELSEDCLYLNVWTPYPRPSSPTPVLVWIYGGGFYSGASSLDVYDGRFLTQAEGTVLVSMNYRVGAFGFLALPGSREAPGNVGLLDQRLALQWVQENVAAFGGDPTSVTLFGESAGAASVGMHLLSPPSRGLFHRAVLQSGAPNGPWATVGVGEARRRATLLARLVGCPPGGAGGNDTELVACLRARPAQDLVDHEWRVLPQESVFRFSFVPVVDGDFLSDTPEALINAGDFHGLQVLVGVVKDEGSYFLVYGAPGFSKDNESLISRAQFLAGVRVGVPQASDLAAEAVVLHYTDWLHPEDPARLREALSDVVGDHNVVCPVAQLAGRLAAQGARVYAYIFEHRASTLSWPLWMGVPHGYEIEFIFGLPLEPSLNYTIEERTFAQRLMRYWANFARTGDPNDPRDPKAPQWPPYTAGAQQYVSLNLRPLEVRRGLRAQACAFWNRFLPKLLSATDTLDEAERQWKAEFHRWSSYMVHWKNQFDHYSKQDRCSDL
As to the kind of experiment: Displacement of propidium iodide from AChE in bovine erythrocytes at 10 uM after 15 mins by fluorescence plate reader. It counts as cell-based.

For series [2], the system named is SH-SY5Y. As to the kind of experiment: Cytotoxicity against human SH-SY5Y cells assessed as LDH release at 1 uM after 24 hrs by spectrophotometry (reference value: 17.7%). The series is classed as cell-based.
The subject of series [3] is SH-SY5Y. Nature of the series: Neuroprotective activity in human SH-SY5Y cells assessed as protection against rotenone/oligomycin A-induced cell death at 1 uM after 24 hrs by LDH release assay. The series is classed as functional. For orientation: LDH leaks from cells whose membrane has failed.
For series [4], the system named is SH-SY5Y. Nature of the series: Neuroprotective activity in human SH-SY5Y cells assessed as protection against okadaic acid-induced cell death at 1 uM after 24 hrs by MTT assay. The series is classed as functional. (Tetrazolium dyes change colour on reduction, which living cells bring about.)
In the next series the target is Cholinesterase (Equus caballus, UniProt P81908).
Chain of Cholinesterase (P81908 whole entry): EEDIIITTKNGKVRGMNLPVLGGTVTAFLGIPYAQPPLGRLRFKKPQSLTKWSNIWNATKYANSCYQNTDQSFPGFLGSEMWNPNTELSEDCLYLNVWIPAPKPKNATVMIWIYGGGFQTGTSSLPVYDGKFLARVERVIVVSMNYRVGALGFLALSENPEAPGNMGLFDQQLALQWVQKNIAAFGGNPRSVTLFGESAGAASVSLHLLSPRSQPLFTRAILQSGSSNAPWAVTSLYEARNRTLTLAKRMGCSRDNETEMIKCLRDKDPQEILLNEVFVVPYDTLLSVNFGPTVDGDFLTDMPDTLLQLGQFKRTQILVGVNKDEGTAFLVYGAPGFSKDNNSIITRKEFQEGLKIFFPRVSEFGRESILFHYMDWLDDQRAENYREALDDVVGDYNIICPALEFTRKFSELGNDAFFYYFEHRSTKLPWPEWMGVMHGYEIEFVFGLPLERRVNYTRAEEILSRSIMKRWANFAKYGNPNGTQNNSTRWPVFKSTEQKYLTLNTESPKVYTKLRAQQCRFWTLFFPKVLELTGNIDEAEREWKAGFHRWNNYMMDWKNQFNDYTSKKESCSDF
Series [5] concerns the target T2, Acetylcholinesterase (Homo sapiens, UniProt P22303).
Description: Inhibition of AChE in human erythrocytes by Ellman's method
Series [6] deals with Acetylcholinesterase (Electrophorus electricus, UniProt O42275).
Chain of Acetylcholinesterase (Electrophorus electricus, UniProt O42275) (O42275 whole entry): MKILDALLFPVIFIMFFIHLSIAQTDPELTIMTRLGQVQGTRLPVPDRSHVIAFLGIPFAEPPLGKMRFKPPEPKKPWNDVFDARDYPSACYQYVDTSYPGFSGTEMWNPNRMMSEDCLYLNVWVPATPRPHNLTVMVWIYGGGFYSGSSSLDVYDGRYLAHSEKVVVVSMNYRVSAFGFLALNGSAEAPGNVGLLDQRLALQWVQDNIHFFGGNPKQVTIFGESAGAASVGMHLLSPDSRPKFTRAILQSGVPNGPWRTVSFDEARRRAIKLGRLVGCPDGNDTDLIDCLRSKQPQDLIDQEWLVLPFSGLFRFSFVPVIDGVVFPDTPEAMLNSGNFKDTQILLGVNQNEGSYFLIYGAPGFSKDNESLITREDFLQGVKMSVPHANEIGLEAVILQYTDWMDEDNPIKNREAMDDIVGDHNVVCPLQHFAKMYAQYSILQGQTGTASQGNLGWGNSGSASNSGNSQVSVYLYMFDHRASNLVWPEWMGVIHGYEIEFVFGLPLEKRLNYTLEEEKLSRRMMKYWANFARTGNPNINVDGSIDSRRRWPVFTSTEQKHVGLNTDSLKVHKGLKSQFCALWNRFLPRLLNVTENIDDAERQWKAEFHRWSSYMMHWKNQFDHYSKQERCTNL
Description: Inhibition of electric eel AChE by Ellman's method
In series [7] the target is T3, Acetylcholinesterase (Bos taurus, UniProt P23795).
T3 sequence (P23795 whole entry): T1 sequence (whole entry)
Nature of the series: biochemical.
Description: Displacement of propidium iodide from AChE in bovine erythrocytes after 15 mins by fluorescence plate reader

Series [8] has as its target T1, Acetylcholinesterase (Bos taurus). The conditions noted are these: 1 mM.
Description: Displacement of propidium iodide from AChE in bovine erythrocytes at 1 mM after 15 mins by fluorescence plate reader
For series [9], the species on record is Rattus norvegicus. As to the kind of experiment: Prevention of okadaic acid-induced inhibition of PP2A in rat brain cortex assessed as increase in inorganic phosphorus release after 1 hr by malachite green assay relative to control. It counts as tissue-based.
Series [10] concerns the target T2, Acetylcholinesterase. Nature of the series: Inhibition of AChE (unknown orign) by Lineweaver-Burke plot.
The species entered for series [11] is Rattus norvegicus. Nature of the series: Prevention of okadaic acid-induced inhibition of PP2A in rat brain cortex assessed as increase in inorganic phosphorus release at 1 uM after 1 hr by malachite green assay relative to control. The series is classed as tissue-based. Details: scale not given: the % may be the effect or the level left.
The species named for series [12] is Rattus norvegicus. As to the kind of experiment: Prevention of okadaic acid-induced inhibition of PP2A in rat brain cortex assessed as increase in inorganic phosphorus release at 10 uM after 1 hr by malachite green assay relative to control. It counts as tissue-based. More on the design: scale not given: the % may be the effect or the level left.
Series [13] concerns SH-SY5Y. Nature of the series: Neuroprotective activity in human SH-SY5Y cells assessed as protection against amyloid beta(1-42)-induced cell death after 24 hrs by MTT assay. It counts as functional, cell-based.
The test system of series [14] is SH-SY5Y. Nature of the series: Neuroprotective activity in human SH-SY5Y cells assessed as protection against amyloid beta(1-42)-induced cell death at 1 uM after 24 hrs by MTT assay. The series is classed as functional.
For series [15], the system named is SH-SY5Y. As to the kind of experiment: Neuroprotective activity in human SH-SY5Y cells assessed as protection against amyloid beta(1-42)-induced cell death at 10 uM after 24 hrs by MTT assay. The series is classed as functional.
Series [16] relates to Hippocampus. As to the kind of experiment: Neuroprotective activity in isolated rat brain hippocampal slices assessed as protection against oxygen and glucose deprivation-induced cell death after 24 hrs by MTT assay. The series is classed as functional, tissue-based.
Series [17] relates to Hippocampus. As to the kind of experiment: Neuroprotective activity in isolated rat brain hippocampal slices assessed as protection against oxygen and glucose deprivation-induced cell death at 30 uM after 24 hrs by MTT assay. The series is classed as functional.

T2 sequence (P22303 whole entry): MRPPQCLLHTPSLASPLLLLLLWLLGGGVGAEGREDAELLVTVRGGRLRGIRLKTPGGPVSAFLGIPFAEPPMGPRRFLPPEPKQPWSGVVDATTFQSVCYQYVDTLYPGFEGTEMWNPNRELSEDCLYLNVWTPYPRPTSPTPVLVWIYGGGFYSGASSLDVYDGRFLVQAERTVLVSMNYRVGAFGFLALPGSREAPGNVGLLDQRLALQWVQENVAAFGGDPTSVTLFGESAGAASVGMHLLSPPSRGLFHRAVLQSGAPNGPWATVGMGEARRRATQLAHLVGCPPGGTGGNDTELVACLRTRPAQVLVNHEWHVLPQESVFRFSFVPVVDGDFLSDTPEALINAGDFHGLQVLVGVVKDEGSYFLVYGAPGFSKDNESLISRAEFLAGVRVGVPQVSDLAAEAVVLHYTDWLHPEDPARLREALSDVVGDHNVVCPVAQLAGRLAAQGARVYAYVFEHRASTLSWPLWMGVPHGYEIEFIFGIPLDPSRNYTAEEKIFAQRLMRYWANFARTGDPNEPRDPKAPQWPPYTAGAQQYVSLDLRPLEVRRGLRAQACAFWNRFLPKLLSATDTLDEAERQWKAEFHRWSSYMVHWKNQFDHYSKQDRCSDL

With `COC(=O)c1cc2c(N)c3c(nc2nc1C)CCCCC3`, the inhibition (as a rule, the share of the control response that was lost under treatment) in series [1] amounted to 11%. Also, the Activity is recorded as 20.4% with SH-SY5Y [2], 36.1% with SH-SY5Y [3] and 38.7% in the series on SH-SY5Y [4]. Further, the IC50 (in general, the concentration needed to halve the response being measured) came to 490 nM against Cholinesterase, 2000 nM at Acetylcholinesterase [5], 360 nM against Acetylcholinesterase [6] and 360 nM against Acetylcholinesterase [7].
Regarding `CCOC(=O)c1c(C)nc2nc3c(c(N)c2c1-c1ccccc1)CCCC3`, the Activity with SH-SY5Y [3] is 26.8%; with SH-SY5Y [4], 22.1%. Moreover, at Acetylcholinesterase [6], half-maximal inhibition (IC50) was put at 800 nM.
For `COC(=O)c1cc2c(N)c3c(nc2nc1C)CCCCCC3`, in [1], the inhibition came to 16%. The Activity came to 21.6% in the series on SH-SY5Y [2], 42.3% in the series with SH-SY5Y [3] and 26.2% in the series with SH-SY5Y [4]. Besides, the IC50 against Cholinesterase was found to be 4070 nM; against Acetylcholinesterase [5], 1800 nM; against Acetylcholinesterase [6] it was 250 nM; at Acetylcholinesterase [7], 250 nM.
As to `CC(=O)N[C@@H](CS)C(=O)O` [ACETYLCYSTEINE], in the series with SH-SY5Y [3], the Activity amounted to 33.4%.
In [1], `CCOC(=O)c1cc2c(N)c3c(nc2nc1C)CCC3` came in with an inhibition of 20%. Also, the Activity worked out at 12.3% in the series on SH-SY5Y [2], 28.7% in the series with SH-SY5Y [3] and 39.5% in the series on SH-SY5Y [4]. Further, the IC50 on Cholinesterase was 39000 nM; at Acetylcholinesterase [5] it was 2100 nM; against Acetylcholinesterase [6], 350 nM; against Acetylcholinesterase [7] it was 350 nM.
Turning to `COc1ccc2c3c1O[C@H]1C[C@@H](O)C=C[C@@]31CCN(C)C2` [GALANTAMINE], the Activity with SH-SY5Y [4] is given as 0%.
In series [8], `C=CC[N+](C)(C)c1ccc(CCC(=O)CCc2ccc([N+](C)(C)CC=C)cc2)cc1` had an inhibition of 29%.
With `CCOC(=O)c1cc2c(N)c3c(nc2nc1C)CCCC3`, the Activity result in the series filed under Rattus norvegicus [9] was “Dose-dependent effect”; with SH-SY5Y [2], 20.9%; in the series with SH-SY5Y [3], 48.4%; with SH-SY5Y [4] it was 75%; in the series listed under Rattus norvegicus [11], 77%; in the series filed under Rattus norvegicus [12] it was 91%. Further, the Activity result is “Dose-dependent effect” with SH-SY5Y [13]; 54% with SH-SY5Y [14]; 10% in the series on SH-SY5Y [15]; “Dose-dependent effect” in the series on Hippocampus [16]; 65.5% in the series with Hippocampus [17]. For the same compound, at Acetylcholinesterase [10], the affinity, expressed as Ki, was 24 nM. Also, in series [1], the inhibition was 10%. The EC50 (as a rule, the concentration needed to bring the measured effect to its halfway point) in the series with Hippocampus [16] was found to be 6000 nM. This compound came in with an IC50 against Acetylcholinesterase [7] of 60 nM.
On to `CCOC(=O)c1cc2c(N)c3c(nc2nc1C)CCCCCC3`, for which the inhibition in series [1] stood at 10%. In addition, the Activity was determined as 12.7% in the series with SH-SY5Y [2], 32.6% in the series with SH-SY5Y [3] and 33.8% in the series on SH-SY5Y [4]. Moreover, the IC50 at Cholinesterase stood at 5300 nM; at Acetylcholinesterase [5], 1800 nM; against Acetylcholinesterase [6], 400 nM; at Acetylcholinesterase [7], 400 nM.
On to `CCOC(=O)c1cc2c(N)c3c(nc2nc1C)CCCCC3`, for which the inhibition in [1] turned out to be 10%. For the same compound, the Activity in the series with SH-SY5Y [2] was determined as 19.9%; with SH-SY5Y [3] it was 31.1%; with SH-SY5Y [4], 28.9%. The IC50 at Cholinesterase came to 2100 nM; against Acetylcholinesterase [5] it was 2000 nM; against Acetylcholinesterase [6] it was 310 nM; against Acetylcholinesterase [7] it was 310 nM.
Consider `COc1ccc2[nH]cc(CCNC(C)=O)c2c1` [MELATONIN], for which the Activity in the series with SH-SY5Y [3] worked out at 33.8%.
Take `C=C1[C@@H](O)[C@@H]2O[C@]3(CC[C@H](/C=C/[C@@H](C)[C@@H]4CC(C)=C[C@@]5(O[C@H](C[C@@](C)(O)C(=O)O)CC[C@H]5O)O4)O3)CC[C@H]2O[C@@H]1[C@@H](O)C[C@H](C)[C@H]1O[C@@]2(CCCCO2)CC[C@H]1C` [OKADAIC ACID]: the Activity in the series on SH-SY5Y [4] is recorded as 80.5%.
The compound `COC(=O)c1cc2c(N)c3c(nc2nc1C)CCCC3` had an inhibition in [1] of 16%. Further, the Activity in the series on SH-SY5Y [2] amounted to 11.6%; in the series with SH-SY5Y [3] it was 25.8%; with SH-SY5Y [4] it was 44.8%. Further, the IC50 against Cholinesterase was found to be 3400 nM; against Acetylcholinesterase [5], 1000 nM; against Acetylcholinesterase [6] it was 93 nM; against Acetylcholinesterase [7], 93 nM.
In series [1], `COC(=O)c1cc2c(N)c3c(nc2nc1C)CCC3` returned an inhibition of 10%. Besides, the Activity in the series with SH-SY5Y [2] worked out at 22.1%; in the series on SH-SY5Y [3], 37.5%; in the series on SH-SY5Y [4], 36.5%. For the same compound, the IC50 is 5000 nM on Cholinesterase, 1900 nM against Acetylcholinesterase [5], 120 nM against Acetylcholinesterase [6] and 120 nM at Acetylcholinesterase [7].
